Tests used:
[1] = Body weight and intestinal histology of treated mice; format: in vivo, female Crl:CD-1 nude mice; conditions: 30 mg/kg twice a day for seven days
Protocol: Female athymic nude mice (6 weeks old, Crl:CD-1 nude mice) were obtained from Charles River Italia (Calco, Italy). HT-1080 cells (6×10^∧6 cells) were resuspended in 200 µl of PBS 1X and injected subcutaneously in the right flank of the mice. Body weight and tumor measurements (using a digital caliper) were performed twice a week. Randomization was performed on day 12 after cell injection by comparing tumor mass and treatments started on day 13 when tumors reached a median size of 246 mm^3 (range = 230–268 mm^3). SEN461 was formulated in 0.5% w/v Methocel in MilliQ water and administered PO by oral gavage twice a day at 30 mg/kg for seven consecutive days in a total of 15 animals (n = 5 for each time point). Control animals (n = 5) were administered with the vehicle for the same time period. On treatment day 19, the mice were euthanized under inhalant anesthesia with isoflurane and tumor and blood samples were collected at three different time points (1–4–8 h, n = 5 animals for each time point) after last treatment and subjected to gene expression analysis and compound quantification. All mice were maintained in a conventional-specific-pathogen-free facility according to the NIH guidelines using an approved Animal Care and Use Committee protocol. […]

HT-1080 cells [2] = test: Tube formation assay, HT-1080; format: cell-based, human; conditions: HT-1080, 24 hours exposure, vs DMSO
Protocol: Soft agar assay and analysis was carried out as previously described. For scratch assay, confluent monolayer of U2OS and HT-1080 cells were subjected to scratch using a sterile pipette tip. Wounded monolayers were washed to remove debris and incubated with SEN461 at different concentrations for 20 hours. After the incubation period, images were taken under an Axiovert 200M (Zeiss) microscope equipped with a CCD camera, and the gap width was measured using MetaMorph 6.3 software (Universal Imaging Corp.) to calculate the area covered by cells (pixels unit). The tube formation assay was performed using growth factor-reduced Matrigel from BD (BD Biosciences; San Jose, CA, USA). Matrigel was thawed overnight at 4°C and was diluted (1∶1) with phenol red-free DMEM without serum. 100 µl of the diluted matrigel was used to coat the wells of a 96 well plate and was allowed to polymerize for 2 hours at 37°C. […] The tube formation was monitored under a phase contrast microscope (Axiovert 200, Zeiss) and imaged using MetaMorph system (Universal Imaging Corp).

[3] = tested on: Axin1, TNKS1/2, c-Myc protein in U2OS cells
Protocol: Total, nuclear and cytosolic cells lysates were prepared as described previously. Commercial antibodies used in this study include anti-Axin1, anti-β-catenin, anti-P-β−catenin Ser33/Ser37/Thr41 and anti-HA from Cell Signaling Technologies, anti-p21 (Santa Cruz), anti-tankyrases (Abcam), anti-Tubulin and anti-c-Myc from Calbiochem, anti-GAPDH and anti-β-actin (Sigma). For co-localization experiments, U2OS cells were plated directly on coverslips coated with Fibronectin (Invitrogen). After transfections and incubation treatment of 24 h, cells were washed once with 1X PBS and then fixed with 4% paraformaldehyde for 15 min. After three washes in PBS, cells were permeabilized with 0.1% Triton X-100 for 10 min and washed three times with TBS (Bio-Rad). […] After 24 h, cells were washed three times with TBS and incubated for 1 h with the following secondary antibody Alexa Fluor 546-conjugated goat anti-rabbit IgG (Invitrogen, 1∶1000). Finally, coverslips were mounted onto glass slides using Prolong Gold Antifade reagent with DAPI (Invitrogen). Cells were examined under laser confocal fluorescence microscope with plan-apochromate 40x and 63x/1.4 oil-immersion objective (LSM 510 Meta, Axiovert 200, Zeiss). Co-localization experiments were performed in triplicate, and data/images presented are the average of at least 10 random fields for each independent experiment.

HT-1080 cells [4] = test: Scratch assay (motility), HT-1080; format: cell-based, human; conditions: HT-1080, 20 hours
Protocol: Soft agar assay and analysis was carried out as previously described. For scratch assay, confluent monolayer of U2OS and HT-1080 cells were subjected to scratch using a sterile pipette tip. Wounded monolayers were washed to remove debris and incubated with SEN461 at different concentrations for 20 hours. After the incubation period, images were taken under an Axiovert 200M (Zeiss) microscope equipped with a CCD camera, and the gap width was measured using MetaMorph 6.3 software (Universal Imaging Corp.) to calculate the area covered by cells (pixels unit). The tube formation assay was performed using growth factor-reduced Matrigel from BD (BD Biosciences; San Jose, CA, USA). Matrigel was thawed overnight at 4°C and was diluted (1∶1) with phenol red-free DMEM without serum. 100 µl of the diluted matrigel was used to coat the wells of a 96 well plate and was allowed to polymerize for 2 hours at 37°C. After equilibrating the gel with the complete growth medium, 15×10^3 cells were seeded in each well and incubated for 20 hours. The tube formation was monitored under a phase contrast microscope (Axiovert 200, Zeiss) and imaged using MetaMorph system (Universal Imaging Corp).

[5] = tested on: Notch signaling in HEK293 cells; test: Hes5 promoter luciferase reporter with Notch1-IC, HEK293; format: cell-based; conditions: HEK293, Notch1-IC stimulation, data not shown
Excerpt: The generation of TCF-Luciferase and TA-Renilla reporter plasmids as well as IC50 determination and calculation was reported previously. Human AXIN1 and WNT3A cDNAs were purchased from Origene as “transfection ready” plasmids. Dominant negative TCF4 cDNA was purchased from Upstate. Luciferase reporter of the nucleolin promoter (pNucL14) and FLAG-c-Myc expressing vector were from B. Amati. Luciferase reporter of the Hes5 promoter and Notch1-IC expressing vector were from I. Screpanti. Lentiviral vectors for inducible dominant negative TCF4 (rLV-EF1-tTS, rLV-EF1-rtTA and rLV-TRE-CMV-HA-TCF4DN) were purchased from Vectalys.
Transfections were carried out using Lipofectamine 2000 (Invitrogen) according to the manufacturer’s instructions. Lentiviral expression of TCF-Luc, TA-Renilla, and the inducible dominant negative TCF4, were carried out following Vectalys instructions. For reporter assays, luciferase activities were performed as described previously.

For COCC(=O)N1CCN(C(=O)C2CCC(Cn3c(=O)c4cc(OC)ccc4n(C)c3=O)CC2)CC1 (centres unmarked) [SEN461], the body weight [1] was “maintained their body weight with no significant changes”, the “histology of gastrointestinal tract” value [1] was “absence of gross histological changes” and the tubule-formation activity (HT-1080 cells [2]) was “did not produce any change”. The “tankyrases (TNKS1 and TNKS2) protein level” value ([3]; only at the highest concentration) was “very slight stabilization”, the c-Myc protein level ([3]; overnight) was “No effect” and the Axin1 protein level ([3]; overnight, cytoplasmic lysates) was “concentration-dependent stabilization”. For the same compound, the “cellular motility (two-dimensional scratch assay)” value (HT-1080 cells [4]) was “neither U2OS nor HT-1080 cells showed inhibition of motility” and the “Notch signaling (Hes5 promoter luciferase)” value [5] was “did not detect any transcriptional effects”.

— article PMC4026528 (PLoS ONE, 2014)
